Source: US20100173278A1, “MICROCAPSULES CONTAINING MAMMALS' SPERMATOZOIDS, INSEMINATION DOSE CONTAINING SAME AND METHOD FOR OBTAINING SAME” (Cooperative Bretonne D'Insemination Artificielle Porcine, priority 2007, published 2010)
Read-outs that look alike come from different tables or passages of the source.

Tested on: semen
Test: Biocompatibility with semen (non-spermicidal; mobility and viability of the spermatozoa)
Assay type: cell-based, swine
Description: A summary of the tests conducted is given in the table at the end of the description.

Question: For sorbitan monolaurate [Span 20], which “effect on the mobility and viability of the spermatozoa” value is on record?
Answer: The value was “lack of any harmful effect”.

Question: What about the “spermicidal role with respect to semen” value of the same substance?
Answer: The value was “non-spermicidal”.

Question: And the Bio-compatibility (surfactant concentration 0.5%, matrix Suppocire DM)?
Answer: The Bio-compatibility was “Yes”.

Question: And the Bio-compatibility (surfactant concentration 1%, matrix Gelucire 43/01)?
Answer: Its Bio-compatibility is “Yes”.

Question: And the Bio-compatibility (surfactant concentration 1%, matrix Suppocire DM)?
Answer: The Bio-compatibility was “Yes”.

Question: How did the Bio-compatibility turn out when Tween 85 was run?
Answer: Its Bio-compatibility is “Yes”.
